Results as given in patent publication US10941132B2, “Pyrazole derivatives” (HUA MEDICINE (SHANGHAI) Ltd., priority 2016, dated 2021).
pIC50: −log10 of the molar value.

biological target: T1, recombinant rat mGluR5 (Rattus norvegicus, UniProt P31424); test: Functional calcium flux assay (FLIPR), antagonist evaluation against glutamate-evoked [Ca2+]i increase; type: cell-based; conditions: Table 2; HEK293 cells stably expressing recombinant rat mGluR5; 15 min incubation of test compound, then submaximal glutamate; read-out: IC50 (FLIPR assay)
T1 construct: expressed in transfected cells
In short: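 HEK293 cells stably expressing rat mGluR5 were loaded with Fluo-8, preincubated 15 min with compound, then stimulated with submaximal glutamate; [Ca2+]i read by FLIPR. Inhibition relative to glutamate alone was fitted to a 4-parameter logistic to derive IC50.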

T1 sequence (P31424 21-1203): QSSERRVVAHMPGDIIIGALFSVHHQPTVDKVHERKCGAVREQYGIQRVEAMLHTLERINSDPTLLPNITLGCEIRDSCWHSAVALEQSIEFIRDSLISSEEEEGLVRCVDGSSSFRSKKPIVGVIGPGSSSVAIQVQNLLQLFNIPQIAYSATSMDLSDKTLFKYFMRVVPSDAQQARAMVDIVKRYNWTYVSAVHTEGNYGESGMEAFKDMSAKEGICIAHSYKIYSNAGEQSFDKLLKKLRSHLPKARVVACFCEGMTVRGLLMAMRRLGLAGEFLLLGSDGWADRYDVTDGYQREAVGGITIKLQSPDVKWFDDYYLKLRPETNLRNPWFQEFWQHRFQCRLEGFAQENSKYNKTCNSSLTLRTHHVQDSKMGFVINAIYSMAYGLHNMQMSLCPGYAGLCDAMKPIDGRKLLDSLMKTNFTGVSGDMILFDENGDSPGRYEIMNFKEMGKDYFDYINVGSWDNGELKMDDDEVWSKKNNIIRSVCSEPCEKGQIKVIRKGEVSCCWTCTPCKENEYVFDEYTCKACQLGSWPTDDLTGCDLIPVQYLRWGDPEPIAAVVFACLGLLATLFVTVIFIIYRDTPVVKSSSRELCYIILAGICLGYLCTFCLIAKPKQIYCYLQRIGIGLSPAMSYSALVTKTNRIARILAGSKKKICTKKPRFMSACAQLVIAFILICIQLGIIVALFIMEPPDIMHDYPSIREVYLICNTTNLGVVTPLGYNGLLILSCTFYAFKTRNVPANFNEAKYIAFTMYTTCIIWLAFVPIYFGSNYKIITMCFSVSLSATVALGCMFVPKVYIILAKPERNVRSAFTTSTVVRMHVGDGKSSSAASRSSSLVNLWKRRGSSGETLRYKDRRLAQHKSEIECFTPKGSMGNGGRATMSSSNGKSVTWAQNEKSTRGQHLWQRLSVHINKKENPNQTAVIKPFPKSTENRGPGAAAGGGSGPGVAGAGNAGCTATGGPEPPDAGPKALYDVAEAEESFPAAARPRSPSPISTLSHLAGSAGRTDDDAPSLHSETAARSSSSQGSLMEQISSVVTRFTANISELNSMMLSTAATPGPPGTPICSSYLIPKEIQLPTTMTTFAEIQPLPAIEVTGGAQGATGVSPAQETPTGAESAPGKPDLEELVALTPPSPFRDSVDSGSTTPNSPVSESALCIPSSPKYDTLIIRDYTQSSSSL

Compound	pIC50
N#Cc1cc(F)cc(-n2ccc(C#Cc3ccnc(Cl)c3)n2)c1 [Compound 108, 3-(3-((2-chloropyridin-4-yl)ethynyl)-1H-pyrazol-1-yl)-5-fluorobenzonitrile]	≥ 6.30
N#Cc1cc(F)cc(-n2ccc(C#Cc3ncccn3)n2)c1 [Compound 109, 3-fluoro-5-(3-(pyrimidin-2-ylethynyl)-1H-pyrazol-1-yl)benzonitrile]	≥ 6.30
N#Cc1cc(F)cc(-n2ccc(C#Cc3ccncc3)n2)c1 [Compound 110, 3-fluoro-5-(3-(pyridin-4-ylethynyl)-H-pyrazol-1-yl)benzonitrile]	≥ 6.30
N#Cc1cc(F)cc(-n2ccc(C#Cc3cnccn3)n2)c1 [Compound 111, 3-fluoro-5-(3-(pyrazin-2-ylethynyl)-1H-pyrazol-1-yl)benzonitrile]	≥ 6.30
Fc1ccc(-n2ccc(C#Cc3ccccn3)n2)cc1 [Compound 112, 2-((1-(4-fluorophenyl)-1H-pyrazol-3-yl)ethynyl)pyridine]	≥ 6.30
Fc1ccc(-n2ccc(C#Cc3ccccc3)n2)cc1 [Compound 113, 1-(4-fluorophenyl)-3-(phenylethynyl)-1H-pyrazole]	5.30 to 6.00
Fc1ccc(-n2ccc(C#Cc3cccnc3)n2)cc1 [Compound 114, 3-((1-(4-fluorophenyl)-1H-pyrazol-3-yl)ethynyl)pyridine]	5.30 to 6.00
Fc1ccc(-n2ccc(C#Cc3cccc(Cl)c3)n2)cc1 [Compound 115, 3-((3-chlorophenyl)ethynyl)-1-(4-fluorophenyl)-1H-pyrazole]	6.00 to 6.30
Fc1ccc(-n2ccc(C#Cc3ccnc(Cl)c3)n2)cc1 [Compound 116, 2-chloro-4-((1-(4-fluorophenyl)-1H-pyrazol-3-yl)ethynyl)pyridine]	≥ 6.30
Fc1ccc(-n2ccc(C#Cc3ncccn3)n2)cc1 [Compound 117, 2-((1-(4-fluorophenyl)-1H-pyrazol-3-yl)ethynyl)pyrimidine]	6.00 to 6.30
Fc1ccc(-n2ccc(C#Cc3ccncc3)n2)cc1 [Compound 118, 4-((1-(4-fluorophenyl)-1H-pyrazol-3-yl)ethynyl)pyridine]	≥ 6.30
Fc1ccc(-n2ccc(C#Cc3cnccn3)n2)cc1 [Compound 119, 2-((1-(4-fluorophenyl)-H-pyrazol-3-yl)ethynyl)pyrazine]	5.30 to 6.00
FC(F)(F)Oc1ccc(-n2ccc(C#Cc3ccccc3)n2)cc1 [Compound 120]	5.30 to 6.00
FC(F)(F)Oc1ccc(-n2ccc(C#Cc3cccnc3)n2)cc1 [Compound 121, 3-((1-(4-(trifluoromethoxy)phenyl)-1H-pyrazol-3-yl)ethynyl) pyridine]	5.30 to 6.00
FC(F)(F)Oc1ccc(-n2ccc(C#Cc3cccc(Cl)c3)n2)cc1 [Compound 122, 3-((3-chlorophenyl)ethynyl)-1-(4-(trifluoromethoxy)phenyl)-1H-pyrazole]	5.30 to 6.00
FC(F)(F)Oc1ccc(-n2ccc(C#Cc3ncccn3)n2)cc1 [Compound 123, 2-((1-(4-(trifluoromethoxy)phenyl)-1H-pyrazol-3-yl)ethynyl) pyrimidine]	5.30 to 6.00
FC(F)(F)Oc1ccc(-n2ccc(C#Cc3ccncc3)n2)cc1 [Compound 124, 4-((1-(4-(trifluoromethoxy)phenyl)-1H-pyrazol-3-yl)ethynyl) pyridine]	5.30 to 6.00
FC(F)(F)Oc1ccc(-n2ccc(C#Cc3cnccn3)n2)cc1 [Compound 125, 2-((1-(4-(trifluoromethoxy)phenyl)-1H-pyrazol-3-yl)ethynyl) pyrazine]	5.30 to 6.00
Cc1cc(C#Cc2ccccn2)nn1-c1ccc(F)cc1 [Compound 126]	≥ 6.30
Cc1cc(C#Cc2cccnc2)nn1-c1ccc(F)cc1 [Compound 127, 3-((1-(4-fluorophenyl)-5-methyl-1H-pyrazol-3-yl)ethynyl)pyridine]	5.30 to 6.00
Cc1cc(C#Cc2ncccn2)nn1-c1ccc(F)cc1 [Compound 128, 2-((1-(4-fluorophenyl)-5-methyl-1H-pyrazol-3-yl)ethynyl)]	5.30 to 6.00
Cc1cc(C#Cc2cnccn2)nn1-c1ccc(F)cc1 [Compound 129, 2-((1-(4-fluorophenyl)-5-methyl-1H-pyrazol-3-yl)ethynyl)pyrazine]	5.30 to 6.00
Cc1cc(C#Cc2ccncc2)nn1-c1ccc(F)cc1 [Compound 130, 4-((1-(4-fluorophenyl)-5-methyl-1H-pyrazol-3-yl)ethynyl) pyridine]	≥ 6.30
Cc1cc(C#Cc2ccnc(Cl)c2)nn1-c1ccc(F)cc1 [Compound 131, 2-chloro-4-((1-(4-fluorophenyl)-5-methyl-1H-pyrazol-3-yl)ethynyl) pyridine]	≥ 6.30
Cc1cc(C#Cc2cccnc2)nn1-c1ccc(OC(F)(F)F)cc1 [Compound 132, 3-((5-methyl-1-(4-(trifluoromethoxy)phenyl)-1H-pyrazol-3-yl)ethynyl)pyridine]	5.30 to 6.00
Cc1cc(C#Cc2ncccn2)nn1-c1ccc(OC(F)(F)F)cc1 [Compound 133, 2-((5-methyl-1-(4-(trifluoromethoxy)phenyl)-1H-pyrazol-3-yl)ethynyl)pyrimidine]	5.30 to 6.00
Cc1cc(C#Cc2cnccn2)nn1-c1ccc(OC(F)(F)F)cc1 [Compound 134, 2-((5-methyl-1-(4-(trifluoromethoxy)phenyl)-H-pyrazol-3-yl)ethynyl)pyrazine]	5.30 to 6.00
Cc1cc(C#Cc2ccnc(Cl)c2)nn1-c1ccc(OC(F)(F)F)cc1 [Compound 135, 2-chloro-4-((5-methyl-1-(4-(trifluoromethoxy)phenyl)-1H-pyrazol-3-yl)ethynyl)pyridine]	5.30 to 6.00
Cc1cc(C#Cc2ccccn2)nn1-c1ccc(OC(F)(F)F)cc1 [Compound 136, 2-((5-methyl-1-(4-(trifluoromethoxy)phenyl)-1H-pyrazol-3-yl)ethynyl)pyridine]	≥ 6.30
